Experimental data as given in US6828327B2, “Macroheterocylic compounds useful as kinase inhibitors” (Ortho-McNeil Pharmaceutical, Inc., priority 2000, dated 2004).

Target: PKC α (Homo sapiens, UniProt P17252)
Experiment: Biotinylated Peptide Substrate Assay, PKC α
Assay type: biochemical
Conditions: 10 μM ATP; >10 = no 50% inhibition at highest dose tested
Method: Biotinylated peptide substrates were selected from the literature as appropriate for the enzyme being evaluated.
Assay conditions vary slightly for each protein kinase, for example, insulin receptor kinase requires 10 mM MnCl2 for activity and Calmodulin-dependent protein kinase requires calmodulin and 10 mM CaCl2. […] Enzyme was diluted in 50 mM Tris-HCl pH=8.0, 0.1% BSA and added to each well. The reaction was incubated for one hour at 30° C. in the presence of compound. After one hour the reaction mix was aspirated from the plate and the plate was washed with PBS containing 100 mM EDTA. The plate was read on a scintillation counter to determine ^33P-γ-ATP incorporated into the immobilized peptide. […] A maximum and minimum signal for the assay was determined on each plate.

| SMILES | PKC α Kinase Assay (IC50 uM) [µM] |
| --- | --- |
| O=C1NC(=O)C2=C1c1cn(c3ccccc13)CCOCCOCCn1cc2c2cccnc21 [Cpd 10] | >10 |
| O=C1NC(=O)C2=C1c1cn(c3ccccc13)CCOCCOCCOCCn1cc2c2cccnc21 [Cpd 11] | >10 |
